Measured values as given in ChEMBL document CHEMBL1201862, “PubChem BioAssay data set” (2004).
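Results reflect a 48-hour exposure of cells in 96-well plates to compound at five concentrations. GI50: concentration for 50% inhibition of growth.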 Activity calls are given as the source filed them. No stated cut-off is given here; in the data, active = GI50 up to about 1.1 µM and inactive = higher.

Assays:
Test in all cases: NCI anticancer screen, dose series, 48 h
NCI-H522 = tested on: NCI-H522
MOLT-4 = tested on: MOLT-4
HCT-15 = tested on: HCT-15
NCI-H23 = tested on: NCI-H23
HOP-18 = tested on: HOP-18
CCRF-CEM = tested on: CCRF-CEM
SK-OV-3 = tested on: SK-OV-3
NCI-H460 = tested on: NCI-H460
LOX IMVI = tested on: LOX IMVI
SF-539 = tested on: SF-539
TK-10 = tested on: TK-10
M14 = tested on: M14
DMS-273 = tested on: DMS-273
UO-31 = tested on: UO-31
786-0 = tested on: 786-0
HCT-116 = tested on: HCT-116
COLO 205 = tested on: COLO 205
HT-29 = tested on: HT-29
OVCAR-8 = tested on: OVCAR-8
SN12C = tested on: SN12C
UACC-62 = tested on: UACC-62
U-251 = tested on: U-251
SW-620 = tested on: SW-620
SK-MEL-28 = tested on: SK-MEL-28
NCI-H226 = tested on: NCI-H226
SNB-75 = tested on: SNB-75
A549 = tested on: A549
HCC 2998 = tested on: HCC 2998
Malme-3M = tested on: Malme-3M
A498 = tested on: A498
DMS-114 = tested on: DMS-114
HOP-92 = tested on: HOP-92
HL-60 = tested on: HL-60
DLD-1 = tested on: DLD-1
RXF 393 = tested on: RXF 393
UACC-257 = tested on: UACC-257
CAKI-1 = tested on: CAKI-1
IGROV-1 = tested on: IGROV-1
ACHN = tested on: ACHN
M19-MEL = tested on: M19-MEL
SNB-78 = tested on: SNB-78
RPMI-8226 = tested on: RPMI-8226
RXF 631 = tested on: RXF 631
K562 = tested on: K562
EKVX = tested on: EKVX
SK-MEL-5 = tested on: SK-MEL-5
LXFL 529 = tested on: LXFL 529
SR = tested on: SR
SF-295 = tested on: SF-295
SK-MEL-2 = tested on: SK-MEL-2
XF498 = tested on: XF498
KM-20L2 = tested on: KM-20L2
OVCAR-4 = tested on: OVCAR-4
OVCAR-3 = tested on: OVCAR-3
HOP-62 = tested on: HOP-62
OVCAR-5 = tested on: OVCAR-5
KM12 = tested on: KM12
SF-268 = tested on: SF-268
SNB-19 = tested on: SNB-19

With CC1=C[C@H]2c3c([nH]c4ccccc34)C(c3c[nH]c4ccccc34)[C@H]2CC1 (some centres undefined) the GI50 (NCI-H522) was 5.87 µM (inactive), the GI50 (MOLT-4) was 2.15 µM (inactive) and the GI50 (HCT-15) was 5.41 µM. The GI50 (NCI-H23) was 3.33 µM (inactive), the GI50 (HOP-18) was 11.7 µM (inactive) and the GI50 (CCRF-CEM) was 3.36 µM (inactive). The GI50 (SK-OV-3) was 13.7 µM (inactive), the GI50 (NCI-H460) was 2.84 µM (inactive) and the GI50 (LOX IMVI) was 2.19 µM (inactive). The GI50 (SF-539) was 12.9 µM (inactive), the GI50 (TK-10) was 14.5 µM (inactive) and the GI50 (M14) was 6.52 µM (inactive). For the same compound, the GI50 (DMS-273) was 4.33 µM (inactive), the GI50 (UO-31) was > 10 µM (inactive) and the GI50 (786-0) was 3.88 µM (inactive). The GI50 (HCT-116) was 3.27 µM (inactive), the GI50 (COLO 205) was 3.41 µM (inactive) and the GI50 (HT-29) was 3.3 µM (inactive). For the same compound, the GI50 (OVCAR-8) was 8.59 µM (inactive), the GI50 (SN12C) was 3.75 µM (inactive) and the GI50 (UACC-62) was 10.6 µM (inactive). For the same compound, the GI50 (U-251) was 4.55 µM (inactive), the GI50 (SW-620) was 6.37 µM (inactive) and the GI50 (SK-MEL-28) was 12.1 µM (inactive). The GI50 (NCI-H226) was 11 µM (inactive), the GI50 (SNB-75) was 6.44 µM (inactive) and the GI50 (A549) was 10.1 µM (inactive). The GI50 (HCC 2998) was 3.48 µM (inactive), the GI50 (Malme-3M) was 18.5 µM (inactive) and the GI50 (A498) was 15.5 µM (inactive). For the same compound, the GI50 (DMS-114) was 5.74 µM (inactive), the GI50 (HOP-92) was 0.536 µM (active) and the GI50 (HL-60) was 4.94 µM (inactive). For the same compound, the GI50 (DLD-1) was 6.43 µM (inactive), the GI50 (RXF 393) was 1.74 µM (inactive) and the GI50 (UACC-257) was 13.4 µM (inactive). For the same compound, the GI50 (CAKI-1) was 12.9 µM (inactive), the GI50 (IGROV-1) was 7.96 µM (inactive) and the GI50 (ACHN) was 10.2 µM (inactive). The GI50 (M19-MEL) was 10.3 µM (inactive), the GI50 (SNB-78) was 3.53 µM (inactive) and the GI50 (RPMI-8226) was 3.24 µM (inactive). The GI50 (RXF 631) was 3.57 µM (inactive), the GI50 (K562) was 3.75 µM (inactive) and the GI50 (EKVX) was 12.4 µM (inactive). The GI50 (SK-MEL-5) was 11.9 µM (inactive) and the GI50 (LXFL 529) was 4.29 µM (inactive).
CCC12C=CCN3CC[C@]4(C(=C(C(=O)OC)[C@@H]1Nc1ccn(C5OC(COC(C)=O)C(OC(C)=O)C5OC(C)=O)c(=O)n1)Nc1ccccc14)C32 (some centres undefined) was tested, and the GI50 (SR) was 3.94 µM (inactive), the GI50 (NCI-H522) was 3.84 µM (inactive) and the GI50 (MOLT-4) was 6.58 µM (inactive). For the same compound, the GI50 (SF-295) was 4.72 µM (inactive), the GI50 (SK-MEL-2) was 2.39 µM (inactive) and the GI50 (HCT-15) was 3.54 µM. The GI50 (NCI-H23) was 1.62 µM (inactive), the GI50 (HOP-18) was 6.92 µM (inactive) and the GI50 (CCRF-CEM) was 4.59 µM (inactive). For the same compound, the GI50 (SK-OV-3) was 4.93 µM (inactive), the GI50 (NCI-H460) was 4.45 µM (inactive) and the GI50 (LOX IMVI) was 4.26 µM (inactive). The GI50 (SF-539) was 5 µM (inactive), the GI50 (TK-10) was 4.93 µM (inactive) and the GI50 (M14) was 4.18 µM (inactive). For the same compound, the GI50 (DMS-273) was 4.28 µM (inactive), the GI50 (UO-31) was 4.23 µM (inactive) and the GI50 (XF498) was 5.74 µM (inactive). For the same compound, the GI50 (786-0) was 4.54 µM (inactive), the GI50 (HCT-116) was 4 µM (inactive) and the GI50 (COLO 205) was 4.59 µM (inactive). For the same compound, the GI50 (HT-29) was 4.8 µM (inactive), the GI50 (KM-20L2) was 4.66 µM (inactive) and the GI50 (OVCAR-8) was 5.16 µM (inactive). The GI50 (SN12C) was 4.39 µM (inactive), the GI50 (UACC-62) was 3.47 µM (inactive) and the GI50 (U-251) was 4.27 µM (inactive). For the same compound, the GI50 (SW-620) was 4.66 µM (inactive), the GI50 (OVCAR-4) was 1.72 µM (inactive) and the GI50 (SK-MEL-28) was 4.55 µM (inactive). For the same compound, the GI50 (NCI-H226) was 4.47 µM (inactive), the GI50 (SNB-75) was 3.95 µM (inactive) and the GI50 (A549) was 5.9 µM (inactive). The GI50 (HCC 2998) was 4.3 µM (inactive), the GI50 (Malme-3M) was 4.78 µM (inactive) and the GI50 (A498) was 5.19 µM (inactive). The GI50 (HOP-92) was 4.31 µM (inactive), the GI50 (HL-60) was 4.51 µM (inactive) and the GI50 (DLD-1) was 4.53 µM (inactive). The GI50 (RXF 393) was 3.12 µM (inactive), the GI50 (UACC-257) was 1.26 µM (inactive) and the GI50 (OVCAR-3) was 4.37 µM (inactive). For the same compound, the GI50 (HOP-62) was 4.93 µM (inactive), the GI50 (CAKI-1) was 5.37 µM (inactive) and the GI50 (OVCAR-5) was 1.82 µM (inactive). For the same compound, the GI50 (IGROV-1) was 5.25 µM (inactive), the GI50 (ACHN) was 4.43 µM (inactive) and the GI50 (M19-MEL) was 3.98 µM (inactive). The GI50 (SNB-78) was 5.42 µM (inactive), the GI50 (RPMI-8226) was 5.46 µM (inactive) and the GI50 (KM12) was 1.32 µM (inactive). The GI50 (K562) was 5.08 µM (inactive), the GI50 (EKVX) was 5.81 µM (inactive) and the GI50 (SK-MEL-5) was 4.5 µM (inactive). The GI50 (SF-268) was 5.55 µM (inactive), the GI50 (LXFL 529) was 4.42 µM (inactive) and the GI50 (SNB-19) was 4.73 µM (inactive).
